In patent US4973576A, “Bisphophonic acid derivatives and pharmaceutical compositions containing the same” (Yamanouchi Pharmaceutical Co., Ltd., priority 1987, dated 1990):

How the values were obtained:
[1] = test system: hypercalcemia induced by administration of parathyroid hormone (PTH); assay: Inhibitory effect on hypercalcemia induced by PTH in rats (serum Ca++); type: in vivo, male Wistar rats; details: mean ± S.E.
Method: Rats of hypercalcemia induced by administration of parathyroid hormone (hereinafter referred to as "PTH") were used, and the decrement of the serum calcium amount by administration of the compound was measured.
30 μg/kg of human 1-34 PTH (manufactured by Peptide Laboratory) which was dissolved in a 0.1% BSA (bovine serum albumin)-containing physiological saline (content of the PTH is 6 μg/ml) was intravenously injected in an amount of 30 μg/kg (5 ml/kg as the solution) to 5-week male Wistar rats which had been fasting for 20 hours. Only 0.1% BSA-containing physiological saline was injected to the normal control group in the same manner. 45 minutes after the PTH injection, the rats were etherized and then subjected to celiotomy, whereby the blood was collected from the abdominal cava with a vacuum blood-collecting tube. The blood collected was immediately centrifuged by 3000 rpm, at 4° C. for 10 minutes to isolate the serum. The ionized calcium (Ca^++) concentration in the serum was immediately measured with a Ca^++ meter (Sera 250, manufactured by Horiba Manufacturing Co.).
The compounds of the present invention were dissolved using sodium hydroxide and hydrochloric acid, in physiological saline (pH 7.4), for subcutaneous administration, in such amounts that the dose amounted to 2 ml/kg, and for oral administration, in distilled water (pH 7.4) so that the dose amounted to 5 ml/kg. They were administered 24 or 72 hours before the PTH injection. A physiological saline or a distilled water was administered to the normal control group and the control group, in the same manner. Salmon calcitonin (SCT, manufactured by Armour Co.) was dissolved in physiological saline so that the dose amounted to 2 ml/kg, and then subcutaneously administered 30 minutes before the PTH injection.
The results for each group were expressed in terms of mean±S.E. (standard error) and comparison was made among the groups by testing by one-way analysis of variance. The significance level was taken at 5%.

[2] = test system: immobilization-induced atrophy of bone; assay: Inhibition of bone resorption: immobilization-induced (neurectomy) atrophy of bone in rats; type: in vivo, Wistar rats; details: 2 weeks
adjuvant arthritis = assay: Experiment (3)-I: therapeutic effect on adjuvant arthritis in rats; type: in vivo, male Lewis rats; details: po
Method: Specifically, for investigation of the anti-arthritic effect, experimental models of adjuvant arthritis which is resemble to rheumatoid arthritis in human were used in two test methods. In one method to test the therapeutic effect of the compounds, the compounds to be tested were administered to the animals already having the adjuvant arthritis. In the other method to test the prophylactic effect of the compounds, these were administered after the adjuvant administration, and the expression and progress of the resulting arthritis, if any, was observed.
0.1 ml of a suspension of dry dead cells of Mycobacterium butyricum as suspended in liquid paraffin in a proportion of 6 mg/ml was subcutaneously injected to male Lewis rats (7-week) in the tail. After 17 or 18 days, the thickness of the both hind paws was measured. One group comprising six rats in which the arthritis was noticeably observed was isolated. After the grouping day, the compound to be tested was subcutaneously or orally administered once a day for 14 days to the rats. Next day after the last administration, the thickness of the soles of the both hind legs was again measured.
For the Experiments (3)-I and (3)-II, the compounds of the present invention were dissolved, using sodium hydroxide and hydrochloric acid in physiological saline (pH 7.4), for subcutaneous administration, in such amount that the dose amounted to 2 ml/kg, and for oral administration, in distilled water (pH 7.4) so that the dose amounted to 5 ml/kg; and indometacin (as comparative drug) was suspended in 0.5% methyl cellulose solution so that the dose amounted to 5 ml/kg. Each rat was weighed at the first day of starting the administration of the compound to be tested and at the last day of the administration of the compound, and the difference of the weight there between (ΔB.W.) was obtained.
The results for each group were expressed in terms of mean ±S.E. (standard error) and comparison was made among the groups by testing by one-way analysis of variance. The significance level was taken at 5%.

[3] = sc, 0.1 mg/kg, 72 hours before PTH injection
[4] = sc, 0.3 mg/kg, 72 hours before PTH injection
[5] = oral, 30 mg/kg, 72 hours before PTH injection
[6] = oral, 100 mg/kg, 72 hours before PTH injection
[7] = sc, 30 mg/kg, 24 hours before PTH injection
[8] = sc, 0.01 mg/kg, 72 hours before PTH injection
[9] = sc, 0.03 mg/kg, 72 hours before PTH injection

CC(O)(P(=O)(O)O)P(=O)(O)O [Etidronate, 1-hydroxyethylidene-1,1-bisphosphonic acid, reference compound]
Serum Ca++ ([1]; sc, 10 mg/kg, 72 hours before PTH injection): 1.44 ± 0.01 m mole/liter | Serum Ca++ ([1]; sc, 30 mg/kg, 72 hours before PTH injection): 1.40 ± 0.01 m mole/liter

O=P(O)(O)C(Nc1cc(C2CC2)on1)P(=O)(O)O [Example 6, [(5-cyclopropyl-3-isoxazolyl)-amino]-methylene-bis(phosphonic acid)]
Serum Ca++ [1, 3]: 1.42 ± 0.02 m mole/liter | Serum Ca++ [1, 4]: 1.25 ± 0.02 m mole/liter

CCCc1cc(NC(P(=O)(O)O)P(=O)(O)O)no1 [Example 8]
Serum Ca++ [1, 5]: 1.48 ± 0.02 m mole/liter | Serum Ca++ [1, 6]: 1.35 ± 0.02 m mole/liter | Serum Ca++ [1, 3]: 1.41 ± 0.02 m mole/liter | Serum Ca++ [1, 4]: 1.27 ± 0.02 m mole/liter

CC(=O)N(c1cc(C)on1)C(P(=O)(O)O)P(=O)(O)O [Example 12, [N-acetyl(5-methyl-3-isoxazolyl)amino]methylene-bis(phosphonic acid)]
Serum Ca++ [1, 7]: 1.44 ± 0.02 m mole/liter

CCOP(=O)(O)C(Nc1cc(C)on1)P(=O)(O)O (stereo not shown) [Example 14, ethyl [(5-methyl-3-isoxazolyl)amino]methylene-bis(phosphonate)]
Serum Ca++ [1, 7]: 1.45 ± 0.02 m mole/liter

CCCCCc1cc(NC(P(=O)(O)O)P(=O)(O)O)no1 [Example 21, [(5-n-pentyl-3-isoxazolyl)amino]methylene-bis(phosphonic acid)]
Serum Ca++ ([1]; oral, 10 mg/kg, 72 hours before PTH injection): 1.52 ± 0.02 m mole/liter | Serum Ca++ [1, 5]: 1.36 ± 0.06 m mole/liter | Serum Ca++ [1, 6]: 1.33 ± 0.04 m mole/liter | Serum Ca++ [1, 8]: 1.47 ± 0.02 m mole/liter | Serum Ca++ [1, 9]: 1.38 ± 0.01 m mole/liter | Serum Ca++ [1, 3]: 1.22 ± 0.003 m mole/liter | Left humerus Ashed weight ([2]; oral, 3 mg/kg): 64.4 ± 2.3 mg | Left humerus Ashed weight / Dry weight ([2]; oral, 3 mg/kg): 54.4 ± 0.2% | Left humerus Dry weight ([2]; oral, 3 mg/kg): 113.0 ± 3.1 mg | Left humerus Ashed weight ([2]; oral, 10 mg/kg): 67.0 ± 1.2 mg | Left humerus Ashed weight / Dry weight ([2]; oral, 10 mg/kg): 56.0 ± 0.4% | Left humerus Dry weight ([2]; oral, 10 mg/kg): 115.2 ± 4.0 mg | Left humerus Ashed weight ([2]; oral, 30 mg/kg): 65.7 ± 0.9 mg | Left humerus Ashed weight / Dry weight ([2]; oral, 30 mg/kg): 56.5 ± 0.2% | Left humerus Dry weight ([2]; oral, 30 mg/kg): 118.7 ± 2.0 mg | Left humerus Ashed weight ([2]; sc, 0.01 mg/kg): 65.7 ± 0.9 mg | Left humerus Ashed weight / Dry weight ([2]; sc, 0.01 mg/kg): 56.4 ± 0.2% | Left humerus Dry weight ([2]; sc, 0.01 mg/kg): 116.5 ± 1.5 mg | Left humerus Ashed weight ([2]; sc, 0.03 mg/kg): 73.6 ± 0.7 mg | Left humerus Ashed weight / Dry weight ([2]; sc, 0.03 mg/kg): 56.9 ± 0.2% | Left humerus Dry weight ([2]; sc, 0.03 mg/kg): 129.2 ± 1.0 mg | Left humerus Ashed weight ([2]; sc, 0.1 mg/kg): 72.8 ± 1.8 mg | Left humerus Ashed weight / Dry weight ([2]; sc, 0.1 mg/kg): 55.9 ± 0.4% | Left humerus Dry weight ([2]; sc, 0.1 mg/kg): 130.1 ± 3.2 mg | Thickness of Paw (average of right and left paws) (adjuvant arthritis; 10 mg/kg once a day 14 days): 1317 ± 35 × 0.01 mm | ΔB.W. (adjuvant arthritis; 10 mg/kg once a day 14 days): 29.7 ± 1.1 g | Thickness of Paw (average of right and left paws) (adjuvant arthritis; 30 mg/kg once a day 14 days): 1321 ± 35 × 0.01 mm | ΔB.W. (adjuvant arthritis; 30 mg/kg once a day 14 days): 30.0 ± 1.1 g | Thickness of Paw (average of right and left paws) (adjuvant arthritis; 100 mg/kg once a day 14 days): 1119 ± 52 × 0.01 mm | ΔB.W. (adjuvant arthritis; 100 mg/kg once a day 14 days): 29.7 ± 4.5 g

CCCCCCc1cc(NC(P(=O)(O)O)P(=O)(O)O)no1 [Example 22]
Serum Ca++ [1, 5]: 1.44 ± 0.02 m mole/liter | Serum Ca++ [1, 6]: 1.28 ± 0.04 m mole/liter | Serum Ca++ [1, 8]: 1.45 ± 0.01 m mole/liter | Serum Ca++ [1, 9]: 1.35 ± 0.01 m mole/liter | Serum Ca++ [1, 3]: 1.21 ± 0.02 m mole/liter

CCCCCCCc1cc(NC(P(=O)(O)O)P(=O)(O)O)no1 [Example 23]
Serum Ca++ [1, 5]: 1.49 ± 0.00 m mole/liter | Serum Ca++ [1, 6]: 1.41 ± 0.02 m mole/liter | Serum Ca++ [1, 9]: 1.40 ± 0.01 m mole/liter | Serum Ca++ [1, 3]: 1.33 ± 0.01 m mole/liter
